The results in this text go back to publication PMC11078746 (Nature, 2024).

pIC50: −log10 of the molar value.

For data set [1], the target named is T1, RecQ5 (Homo sapiens, UniProt O94762).
T1 construct: Human RecQ5-D1D2 (UniProt: O94762, Asp11–Trp453); His tag (N); made in house; host or cells: E. coli BL21(DE3), by the 'analogous procedure'
Description: RecQ selectivity ATPase assay. The class given is biochemical. The method, then: (§1) DNA sequence allowing expression of human BLM-D1D2RH (UniProt P54132: Lys640–Gly1298) fused at the amino-terminal end to His tag followed by TEV-cleavage site, was inserted into a pET-derived vector. Protein expression was performed in BL21(DE3) cells after IPTG induction. Cells were collected and resuspended in lysis buffer (50 mM NaH2PO4, 300 mM NaCl, 1 mM TCEP, 20 mM imidazole, pH 8.0) supplemented with 2 mM MgCl2, benzonase and 0.5 mM AEBSF. Cells were lysed with an Emulsiflex C3 homogenizer. After ultracentrifugation, the lysate was loaded onto a HisTrap HP column. Bound protein was eluted with an imidazole gradient in lysis buffer. The amino-terminal tag was cleaved with TEV protease. Cleaved protein was loaded on Resource S ion-exchange column and eluted with a NaCl gradient in IEX buffer (20 mM Tris, 1 mM TCEP, 10% glycerol, 20 mM NaCl, pH 7.4). As a final step, BLM-D1D2RH protein was concentrated and loaded onto the Superdex 75 gel-filtration column pre-equilibrated with SEC buffer (50 mM Tris, 150 mM NaCl, 10% glycerol, pH 7.4). Eluted target protein was concentrated and frozen on dry ice. An analogous procedure was used for the expression and purification of human RecQ1-D1D2 (UniProt: P46063, Asp62–Ser482) and Human RecQ5-D1D2 (UniProt: O94762, Asp11–Trp453) proteins.
(§2) We used an ADP-Glo assay kit (Promega) to monitor ATP hydrolysis. A 45-oligonucleotide with the following sequence: […], referred to as FLAP26, as described previously[45] was purchased from IDT (Integrated DNA Technologies) and used as a DNA substrate. […] The reaction was started by addition of 2.5 μl of ssDNA substrate at 0.4 nM and incubated for 30 min at room temperature. The reaction was stopped with the addition of 5 μl of the first ADP-Glo reagent and incubated for 1 h to remove the excess amount of ATP. Then, 10 μl of ATP detection reagent was added and incubated for an additional hour before reading. The luminescence output was recorded using the Pherastar reader, with a 5 min delay before reading. Each concentration of compounds was tested in duplicates in the assay plate. The compound potency (IC50 value) was determined using custom software (Novartis Helios software application) with a four-parameter sigmoid Hill-curve model. After normalization of activity values for the wells to percentage inhibition (percentage inhibition = [(high control activity − sample activity)/(high control activity − low control activity)] × 100), IC50 fitting was performed from the duplicate determinations present on each plate.
(§3) The same ATPase assay protocol was used with the three other RecQ protein constructs to assess the selectivity over WRN. Time-course experiments were performed to determine the best enzymatic assay conditions for each RecQ protein. The experiments were run as described above with 10 nM RecQ1 protein construct with 10 nM ssDNA substrate, 2 nM BLM protein construct with 0.2 nM ssDNA substrate and 0.5 nM RecQ5 protein construct with 2 nM ssDNA substrate, respectively.

The target in data set [2] is T2, RecQ1 (Homo sapiens, UniProt P46063).
T2 construct: human RecQ1-D1D2 (UniProt: P46063, Asp62–Ser482); His tag (N); made in house; host or cells: E. coli BL21(DE3), by the 'analogous procedure'
Description: RecQ selectivity ATPase assay. The class given is biochemical. The method, then:
as §1, §2, §3

Data set [3] deals with T3, BLM (Homo sapiens, UniProt P54132).
T3 construct: human BLM-D1D2RH (UniProt P54132: Lys640–Gly1298); His tag (N, cleaved yes); made in house; host or cells: E. coli BL21(DE3)
The experiment in a line: RecQ selectivity ATPase assay. Type of data set: biochemical. As to the method: as §1, §2, §3

The nature of data set [4]: logD / logP. To be noted: for logD: 1-octanol/water, pH 7.4, 1-octanol and water at pH 7.4. The class given is physicochemical.
Data set [5] relates to LS513. Description: CFA 10-14 day clonogenic assay. The class given is cell-based. The settings on record: Homo sapiens, LS-513.
Data set [6] has as its system CL34. The experiment in a line: CFA 10-14 day clonogenic assay. The class given is cell-based. The settings on record: Homo sapiens.
Data set [7] in a line: Rat PK. The class given is in vivo. The method, then: PK parameters were determined by non-compartmental analysis. Intravenous bolus studies in mouse, rat and dog were performed at 1, 1 and 0.1 mg per kg respectively (Extended Data Table 1).
Data set [8] has as its system MSI cancer cells. The experiment in a line: Clonogenic assay, 10-to-14-day. Type of data set: cell-based. To be noted: Homo sapiens, 10-to-14-day clonogenic assay.

Broadly, the pIC50 is the IC50 on a negative log10 scale, so that one unit is a factor of ten. For orientation: logP means a log measure of how a compound divides between an organic and an aqueous phase. Read a low logP as a more hydrophilic compound. By logD is commonly meant the decadic logarithm of the distribution of all forms, ionised or not, between an organic phase and buffer at a given pH. The low end stands for a more hydrophilic compound, the high end for a more lipophilic compound. In general, GI50 refers to the concentration that inhibits growth by half. Low values mean more potent growth inhibition, high ones less potent growth inhibition.

T3 sequence (P54132 640-1298): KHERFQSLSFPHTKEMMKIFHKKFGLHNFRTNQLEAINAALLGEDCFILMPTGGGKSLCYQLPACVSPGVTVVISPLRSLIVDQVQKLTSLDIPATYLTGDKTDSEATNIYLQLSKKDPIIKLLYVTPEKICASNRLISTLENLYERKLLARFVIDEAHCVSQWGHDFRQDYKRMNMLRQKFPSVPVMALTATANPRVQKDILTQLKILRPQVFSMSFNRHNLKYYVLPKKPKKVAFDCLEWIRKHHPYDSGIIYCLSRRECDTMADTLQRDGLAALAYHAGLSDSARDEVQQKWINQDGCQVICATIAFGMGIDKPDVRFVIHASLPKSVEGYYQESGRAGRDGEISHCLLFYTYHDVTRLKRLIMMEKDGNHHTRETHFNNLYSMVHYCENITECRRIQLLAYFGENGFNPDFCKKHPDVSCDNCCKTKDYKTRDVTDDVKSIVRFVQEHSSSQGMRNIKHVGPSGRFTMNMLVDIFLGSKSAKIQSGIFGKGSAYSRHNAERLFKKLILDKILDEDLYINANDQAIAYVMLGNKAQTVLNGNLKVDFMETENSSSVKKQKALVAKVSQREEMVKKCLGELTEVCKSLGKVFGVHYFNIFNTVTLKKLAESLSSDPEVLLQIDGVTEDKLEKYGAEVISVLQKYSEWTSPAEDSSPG
T2 sequence (P46063 62-482): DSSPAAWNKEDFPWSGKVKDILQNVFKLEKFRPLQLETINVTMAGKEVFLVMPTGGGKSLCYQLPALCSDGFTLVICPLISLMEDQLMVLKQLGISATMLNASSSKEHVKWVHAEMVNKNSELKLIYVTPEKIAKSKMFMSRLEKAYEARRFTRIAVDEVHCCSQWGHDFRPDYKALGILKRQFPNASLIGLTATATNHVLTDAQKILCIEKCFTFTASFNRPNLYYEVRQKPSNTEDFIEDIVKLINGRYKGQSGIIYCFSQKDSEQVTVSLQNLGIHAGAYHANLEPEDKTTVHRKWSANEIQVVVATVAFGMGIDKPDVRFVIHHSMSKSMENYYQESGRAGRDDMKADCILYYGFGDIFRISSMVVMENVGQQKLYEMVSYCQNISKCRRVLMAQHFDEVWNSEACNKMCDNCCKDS
T1 sequence (O94762 11-453): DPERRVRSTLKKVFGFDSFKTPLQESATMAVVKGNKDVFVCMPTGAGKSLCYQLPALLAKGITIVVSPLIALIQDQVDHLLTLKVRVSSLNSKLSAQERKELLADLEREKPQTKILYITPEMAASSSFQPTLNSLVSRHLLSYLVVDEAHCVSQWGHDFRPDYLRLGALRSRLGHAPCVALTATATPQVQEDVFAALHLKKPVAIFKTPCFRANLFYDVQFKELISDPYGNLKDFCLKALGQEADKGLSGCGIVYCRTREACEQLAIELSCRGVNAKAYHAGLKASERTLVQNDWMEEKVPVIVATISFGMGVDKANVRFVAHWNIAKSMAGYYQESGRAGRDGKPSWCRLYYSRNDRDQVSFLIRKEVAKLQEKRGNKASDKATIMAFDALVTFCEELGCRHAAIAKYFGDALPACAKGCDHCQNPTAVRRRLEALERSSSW

Turning to `CCc1c(N2CCN(C(=O)c3ncnc(C)c3O)CC2)c(=O)n2nc(C3=CCOCC3)nc2n1CC(=O)Nc1ccc(C(F)(F)F)cc1Cl` [HRO761], the pIC50 in data set [1], in data set [2] and in data set [3] was below 4.00 each time. The logP in data set [4] amounted to 3.4. In data set [4], this compound yielded a logD of 1.8. The GI50 in data set [5] was at least 10 µM; in data set [6], 39 nM; in data set [8], 50 to 1000 nM. Further, in data set [7], the “Rat PK, oral bioavailability (F)” value stood at 74 % F.

Turning to `CCc1c(N2CCN(C(=O)c3ncccc3O)CC2)c(=O)n2nc(C3=CCOCC3)nc2n1CC(=O)Nc1ccc(C(F)(F)F)cc1C` [compound 3], in data set [4], the logD is 2.9. The “Rat PK, oral bioavailability (F)” value in data set [7] came to 20 % F.
